Entries after “also recorded” stand apart in the source; their conditions may differ. No end group written: not given here.
Tests used:
[1] = oral administration; cited from earlier work
[2] = system: virgin females of Heliothis virescens; settings: 100 pmole dose, cited from earlier work
[3] = system: virgin females of Heliothis virescens; test: Pheromonotropic assay (topical application); assay type: in vivo
Description: The amphiphilic carboranyl analog Cbe--Thr--Pro--Arg--Leu--NH2 was dissolved in water and solutions at concentrations of 5, 10, 25, 60, and 200 pmol/μl were prepared. The cuticular scales along the lateral side of the abdomen were removed with a 1 ml plastic pipet tip attached to house vacuum with a rubber hose. A low vacuum was applied to the apparatus and the pipet tip was gently passed over the cuticle until the scales were drawn by suction. After the scales were removed, 1 μl of peptide solution was applied to the surface of the cuticle and smoothed evenly over the prepared surface. […]
Pupae of Heliothis virescens were obtained from a laboratory colony maintained at the Insect Attractants Behavior and Basic Biology Research Laboratory, USDA-ARS, Gainesville, Fla. The pupae were separated by sex and the females were held in 4-1 cages. Cages were inspected daily for newly eclosed adults which were transferred to new cages and provided with cotton wicks soaked with a 5% sucrose solution. The insects were held at 25°[…] C. and 65%±3% relative humidity with a 12:12 (L:D) photoperiod. Virgin females were used for bioassays 2 and 3 days after eclosion during the 7th-8th hour of the photophase when little or no pheromone is present in the gland (Teal et al., 1993, Can. Entomol., 153:355-366). The cuticular scales were removed from the lateral side of the abdomen using a plastic pipet tip attached to house vacuum using a rubber hose. A low vacuum was applied and the pipet tip was passed gently over the cuticle until the scales were drawn off by suction. Insects were returned to the incubator for 24 h after the scales were removed for most experiments. However, insects were not given a recovery period in studies in which peptides were applied in DMSO (see below).
In initial studies we used dimethyl sulfoxide (DMSO) as a carrier to deliver Hez--PBAN or [6--Pha--Ala^0 ]Lom--MT--II for topical applications. […] We also assessed different carrier solvents for their ability to deliver these two peptides. Peptides were dissolved at a concentration of 500 pmol/μl in: DMSO, water, or 80% acetonitrile:20% water. Solutions were applied to the descaled abdomen in 1 μl of solvent as above. The insects were allowed to incubate for 1 h prior to excision and extraction of the pheromone gland. Extracts were analyzed for the amount of pheromone as above.
The use of water as a carrier for [6--Pha--Ala^0 ]Lom--MT--II was also assessed in dose response and temporal activity studies. For dose response studies [6--Pha--Ala^0 ]Lom--MT--II was dissolved in water at concentrations of 5, 10, 25, 50, 75, 100, 250, 500, 750 and 1000 pmol/μl. Insects were incubated for 60 min after application of 1 μl of solution to the descaled abdomen. In temporal activity studies a 100 pmol/μl dose was selected. For these experiments insects were incubated for periods of 15, 30, 60, 120, or 180 min after application of 1 μl of solution to the descaled abdomen. The ability of the parent peptide, Lom--MT--II, to stimulate pheromone production when applied topically in water was assessed by applying doses of 50, 100, 250 and 500 pmol to the abdomen. Control treatments for this experiment included insects treated with only water and females treated by topical application of 100 pmol of [6--Pha--Ala^0 ]Lom--MT--II. After incubation the sex pheromone glands were excised, extracted and analyzed for the amount of pheromone.

[4] = system: isolated cockroach (Leucophaea maderae) hindgut; settings: values printed with reference numbers; cited from earlier work
[5] = system: virgin females of Heliothis virescens; settings: H. virescens, printed with reference number; cited from earlier work
[6] = aqueous solution, 15 min to 3 hr

LSDDMPATPADQEMYRQDPEQIDSRTKYFSPRL-NH2 [HezPBAN, reference compound]
share of orally administered peptide entering the hemolymph through the gut wall [1]: approximately 5% | pheromone production over control group after topical aqueous application ([2]; 15 min, 1 hr, 2 hr, 3 hr following treatment, listed as PBAN): does not lead to production of statistically different levels of pheromone production | ED50, pheromone production via topical application [2, 6]: Inactive | Maximal Response via topical application [2, 6]: Inactive | pheromone versus water-only controls, time course, topical in water ([3]; 100 pmol in water, 15-180 min, FIG. 9): no different from controls at any time interval; also recorded: did not contain more pheromone than was present in extracts obtained from insects treated with water only | pheromone production, topical 500 pmol/female in 80% acetonitrile ([3]; 80% acetonitrile in water, 60 min, FIG. 7): no significant activity | amount required to stimulate significant pheromone production relative to [6--Pha--Ala^0 ]Lom--MT--II ([3]; DMSO carrier): ten fold more | dose from which pheromone is produced, topical in DMSO ([3]; DMSO carrier, 60 min, FIG. 6): 50 pmol/female | amount of pheromone at 100 to 1000 pmol/female, topical in DMSO ([3]; DMSO carrier, FIG. 6): equivalent amounts of pheromone | pheromone production after topical application in DMSO ([3]; DMSO carrier, descaled cuticle): produced pheromone; also recorded: effective in stimulating pheromone production | pheromone production, topical 500 pmol/female in DMSO ([3]; DMSO, 60 min, FIG. 7): equivalent amounts of pheromone | pheromone production when applied to the surface of the cuticle in water ([3]; water carrier): failed to stimulate production of significant amounts of pheromone | pheromone production, topical 500 pmol/female in water ([3]; water, 60 min, FIG. 7): no significant activity | Threshold Concentration, myostimulation of the isolated cockroach hindgut [4]: 2,600 pM | ED50, pheromone production via injection [5]: 1.0 pmol | Maximal Response via injection (dose) [5]: 5.0 pmol

Source: patent US5795857A, “Mimetic insect pyrokinin analogs for insect control” (The United States of America as represented by the …, priority 1996, dated 1998)
